Calls of active or inactive are those of the source. The rule behind the calls is not given here.
Tests used:
[1] = molecular target: T1, Vitamin D3 receptor (Homo sapiens) (UniProt P11473); assay: Binding affinity to full-length VDR (unknown origin) at 1 uM by fluorescence polarization assay relative to control
T1 sequence (whole entry): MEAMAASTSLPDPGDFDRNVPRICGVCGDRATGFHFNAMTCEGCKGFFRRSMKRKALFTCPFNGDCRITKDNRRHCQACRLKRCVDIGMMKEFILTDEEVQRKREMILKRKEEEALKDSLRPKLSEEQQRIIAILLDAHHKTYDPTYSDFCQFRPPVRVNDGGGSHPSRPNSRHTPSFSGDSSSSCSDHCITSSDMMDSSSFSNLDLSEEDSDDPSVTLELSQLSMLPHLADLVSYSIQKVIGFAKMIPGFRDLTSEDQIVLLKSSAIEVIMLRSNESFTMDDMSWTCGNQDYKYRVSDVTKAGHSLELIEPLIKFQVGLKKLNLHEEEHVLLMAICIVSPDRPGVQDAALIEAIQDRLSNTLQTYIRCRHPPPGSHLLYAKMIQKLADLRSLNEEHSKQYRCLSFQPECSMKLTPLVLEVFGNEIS

[2] = molecular target: T1, Vitamin D3 receptor (Homo sapiens); assay: Agonist activity at human VDR in HEK293 cells co-expressing 3-Luc/RXRalpha assessed as transcriptional activity at 0.5 uM by dual luciferase reporter assay; type: cell-based; conditions: filed as agonist
LX-2 [3] = assay: Inhibition of HSC activation in TGF-beta1-treated human LX2 cells assessed as decrease in collagen-I level at 0.5 uM incubated for 24 hrs by Western blot analysis; type: functional, cell-based
LX-2 [4] = assay: Inhibition of HSC activation in TGF-beta1-treated human LX2 cells assessed as decrease in COL1A1 mRNA level at 0.5 uM incubated for 24 hrs by qPCR analysis; type: functional, cell-based
LX-2 [5] = assay: Inhibition of HSC activation in TGF-beta1-treated human LX2 cells assessed as decrease in ACTA2 mRNA level at 0.5 uM incubated for 24 hrs by qPCR analysis; type: functional, cell-based
[6] = molecular target: T1, Vitamin D3 receptor (Homo sapiens); assay: Agonist activity at VDR in human LX2 cells assessed as increase in CYP24A1 level at 0.5 uM by qRT-PCR analysis; type: cell-based; conditions: filed as agonist
LX-2 [7] = assay: Inhibition of HSC activation in TGF-beta1-treated human LX2 cells assessed as decrease in alpha-SMA level at 0.5 uM incubated for 24 hrs by Western blot analysis; type: functional, cell-based
LX-2 [8] = assay: Inhibition of HSC activation in TGF-beta1-treated human LX2 cells harboring VDR siRNA assessed as decrease in alpha-SMA level at 0.5 uM incubated for 24 hrs by Western blot analysis; type: functional, cell-based
LX-2 [9] = assay: Inhibition of HSC activation in TGF-beta1-treated human LX2 cells harboring VDR siRNA assessed as decrease in collagen-I level at 0.5 uM incubated for 24 hrs by Western blot analysis; type: functional, cell-based

Q: CC(C)(C)c1ccc(C(=O)COc2ccc(/C=C/C3=C[C@@H](O)[C@@H](O)[C@H](O)C3)c3c2CCCC3)cc1 was tested. Which Activity ([1]; filed as agonist) did it give?
A: 88%

Q: Which Activity ([1]; filed as agonist) does the source give for CC(C)(O)CCCOc1cccc2c1CCCC2OC(=O)C1=C[C@@H](O)[C@@H](O)[C@H](O)C1 (stereo not given in full) here?
A: 69%

Q: For CC(C)(O)CCCOc1ccc(/C=C/C2=C[C@@H](O)[C@@H](O)[C@H](O)C2)c2c1CCCC2, which Activity ([1]; filed as agonist) is on record?
A: 43%

Q: For CC(C)(C)C(O)COc1ccc(/C=C/C2=C[C@@H](O)[C@@H](O)[C@H](O)C2)c2c1CCCC2 (stereo not given in full), which Activity ([1]; filed as agonist) is on record?
A: 50%

Q: CCC(O)(CC)CCCOc1ccc(C#CC2=C[C@@H](O)[C@@H](O)[C@H](O)C2)c2c1CCCC2 was tested. Which Activity [1] did it give?
A: inactive

Q: With CCC(O)(CC)COc1ccc(/C=C/C2=C[C@@H](O)[C@@H](O)[C@H](O)C2)c2c1CCCC2 as the compound, how does the Activity ([1]; filed as agonist) read?
A: 61%

Q: CC(C)(O)CCCCOc1ccc(C#CC2=C[C@@H](O)[C@@H](O)[C@H](O)C2)c2c1CCCC2 was tested. Which Activity ([1]; filed as agonist) did it give?
A: 50%

Q: With CCC(O)(CC)c1ccc(-c2ccc(COC(=O)C3=C[C@@H](O)[C@@H](O)[C@H](O)C3)s2)c(C)c1 as the compound, how does the Activity [2] read?
A: Active

Q: And the Activity ([1]; filed as agonist)?
A: 60%

Q: What about the inhibition (LX-2 [3]) of the same compound?
A: Active

Q: And the inhibition (LX-2 [4])?
A: Active

Q: And the inhibition (LX-2 [5])?
A: Active

Q: And the Activity [6]?
A: Active

Q: And the inhibition (LX-2 [7])?
A: Active

Q: How did the Activity [1] turn out when CCCCC(O)(CCCC)CCCOc1cccc2c1CCCC2OC(=O)C1=C[C@@H](O)[C@@H](O)[C@H](O)C1 (stereo not given in full) was run?
A: 34%

Q: O=C(OC1CCCc2c(OCCCN3CCOCC3)cccc21)C1=C[C@@H](O)[C@@H](O)[C@H](O)C1 (stereo not given in full) was tested. Which Activity [1] did it give?
A: 50%

Q: And the inhibition (LX-2 [3])?
A: inactive

Q: What about the inhibition (LX-2 [4]) of the same compound?
A: inactive

Q: What about the inhibition (LX-2 [5]) of the same compound?
A: inactive

Q: And the inhibition (LX-2 [7])?
A: inactive

Q: How did the Activity ([1]; filed as agonist) turn out when CC(C)(C)C(=O)COc1ccc(/C=C/C2=C[C@@H](O)[C@@H](O)[C@H](O)C2)c2c1CCCC2 was run?
A: 68%

Q: What does the source list for C=C1/C(=C\C=C2/CCC[C@]3(C)[C@@H]([C@H](C)/C=C/[C@@H](O)C4CC4)CC[C@@H]23)C[C@@H](O)C[C@@H]1O?
A: Activity ([1]; filed as agonist): 100%; inhibition (LX-2 [8]): inactive; inhibition (LX-2 [9]): inactive

Q: Which Activity ([1]; filed as agonist) does the source give for CCC(O)(CC)CCCn1ccc2c(/C=C/C3=C[C@@H](O)[C@@H](O)[C@H](O)C3)cccc21 here?
A: 64%

Q: What about the Activity [6] of the same compound?
A: Active

Q: For C=CCC(O)(CC=C)CCCOc1cccc2c1CCCC2OC(=O)C1=C[C@@H](O)[C@@H](O)[C@H](O)C1 (stereo not given in full), which Activity ([1]; filed as agonist) is on record?
A: 51%

Q: How did the Activity ([1]; filed as agonist) turn out when OCc1ccc(/C=C/c2ccc(OCCCC(F)(F)F)cc2)cc1CO was run?
A: 51%

Q: For CC(C)(O)CCOc1ccc(C#CC2=C[C@@H](O)[C@@H](O)[C@H](O)C2)c2c1CCCC2, which Activity ([1]; filed as agonist) is on record?
A: 56%

Q: For CCN(CC)CCCOc1cccc2c1CCCC2OC(=O)C1=C[C@@H](O)[C@@H](O)[C@H](O)C1 (stereo not given in full), which Activity ([1]; filed as agonist) is on record?
A: 64%

Q: For CCn1cc(C(CC)(CC)c2ccc(OCC(O)CO)c(C)c2)cc1C(=O)NCC(C)(C)O (stereo not given), which Activity ([1]; filed as agonist) is on record?
A: 57%

Q: And the inhibition (LX-2 [8])?
A: inactive

Q: And the inhibition (LX-2 [9])?
A: inactive

Q: Which Activity ([1]; filed as agonist) does the source give for CC(C)(O)CCCCOc1cccc2c1CCCC2OC(=O)C1=C[C@@H](O)[C@@H](O)[C@H](O)C1 (stereo not given in full) here?
A: 65%

Q: With CC(OC(=O)C1=C[C@@H](O)[C@@H](O)[C@H](O)C1)c1cccc(OCCCC(C)(C)O)c1 (stereo not given in full) as the compound, how does the Activity ([1]; filed as agonist) read?
A: 85%
